Test results reported in ChEMBL document CHEMBL1201862, “PubChem BioAssay data set” (2004).
“And” between values parts separate entries of the source, which are not always exact repeats. Identical values can stand only once.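 Following 48 hours of exposure in 96-well plates, responses at five concentrations were used to interpolate endpoints linearly. Here, GI50 denotes the concentration required for 50% inhibition of growth.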 The source made the active and inactive calls. Rule as the data show it: active = GI50 up to about 1.1 µM and inactive = higher. Residues, ends and D or L forms follow the SMILES beside them. *: point of attachment. Boc = CC(C)(C)OC(=O)*; Bn = c1ccc(C*)cc1

Assays:
Test in all cases: NCI-60 cell line screen, 48 h
HCT-116 = tested on: HCT-116
CCRF-CEM = tested on: CCRF-CEM
COLO 205 = tested on: COLO 205
NCI-H23 = tested on: NCI-H23
SK-MEL-5 = tested on: SK-MEL-5
MDA-MB-231 = tested on: MDA-MB-231
SN12C = tested on: SN12C
HL-60 = tested on: HL-60
CAKI-1 = tested on: CAKI-1
UACC-257 = tested on: UACC-257
IGROV-1 = tested on: IGROV-1
RXF 393 = tested on: RXF 393
HCT-15 = tested on: HCT-15
K562 = tested on: K562
MOLT-4 = tested on: MOLT-4
M14 = tested on: M14
MDA-MB-435 = tested on: MDA-MB-435
OVCAR-8 = tested on: OVCAR-8
PC-3 = tested on: PC-3
OVCAR-5 = tested on: OVCAR-5
UO-31 = tested on: UO-31
SF-539 = tested on: SF-539
SK-MEL-2 = tested on: SK-MEL-2
Hs-578T = tested on: Hs-578T
U-251 = tested on: U-251
BT-549 = tested on: BT-549
UACC-62 = tested on: UACC-62
OVCAR-4 = tested on: OVCAR-4
NCI-H226 = tested on: NCI-H226
RPMI-8226 = tested on: RPMI-8226
T47D = tested on: T47D
HOP-62 = tested on: HOP-62
NCI/ADR-RES = tested on: NCI/ADR-RES
ACHN = tested on: ACHN
SK-OV-3 = tested on: SK-OV-3
LOX IMVI = tested on: LOX IMVI
KM12 = tested on: KM12
DU-145 = tested on: DU-145
TK-10 = tested on: TK-10
NCI-H460 = tested on: NCI-H460
A549 = tested on: A549
MCF7 = tested on: MCF7
OVCAR-3 = tested on: OVCAR-3
HT-29 = tested on: HT-29
786-0 = tested on: 786-0
HCC 2998 = tested on: HCC 2998
SNB-19 = tested on: SNB-19
SF-295 = tested on: SF-295
SF-268 = tested on: SF-268
EKVX = tested on: EKVX
NCI-H522 = tested on: NCI-H522
HOP-92 = tested on: HOP-92
SW-620 = tested on: SW-620
SR = tested on: SR
MDA-N = tested on: MDA-N

Q: Which GI50 (HCT-116) does the source give for `CC(=O)/C(=C\NC(=S)Nc1ccc(S(N)(=O)=O)cc1)C(=O)Nc1ccccc1C` here?
A: The GI50 was 40.5 µM (inactive).

Q: What about the GI50 (CCRF-CEM) of the same compound?
A: The GI50 was 16 µM (inactive).

Q: And the GI50 (COLO 205)?
A: Its GI50 is 18.5 µM (inactive).

Q: What about the GI50 (NCI-H23) of the same compound?
A: The GI50 was 71.3 µM (inactive).

Q: What about the GI50 (SK-MEL-5) of the same compound?
A: Its GI50 is 44 µM (inactive).

Q: What about the GI50 (MDA-MB-231) of the same compound?
A: The GI50 was 34.2 µM (inactive).

Q: And the GI50 (SN12C)?
A: Its GI50 is 71 µM (inactive).

Q: What about the GI50 (HL-60) of the same compound?
A: The GI50 was 16.1 µM (inactive).

Q: What about the GI50 (CAKI-1) of the same compound?
A: The GI50 was 37.8 µM (inactive).

Q: What about the GI50 (UACC-257) of the same compound?
A: Its GI50 is 71.6 µM (inactive).

Q: What about the GI50 (IGROV-1) of the same compound?
A: Its GI50 is 55.3 µM (inactive).

Q: And the GI50 (RXF 393)?
A: The GI50 was 37.1 µM (inactive).

Q: What about the GI50 (HCT-15) of the same compound?
A: Its GI50 is 41.3 µM.

Q: And the GI50 (K562)?
A: The GI50 was 32.4 µM (inactive).

Q: What about the GI50 (MOLT-4) of the same compound?
A: The GI50 was 28.5 µM (inactive).

Q: And the GI50 (M14)?
A: Its GI50 is 37.8 µM (inactive).

Q: And the GI50 (MDA-MB-435)?
A: Its GI50 is 32.3 µM (inactive).

Q: And the GI50 (OVCAR-8)?
A: Its GI50 is 72.9 µM (inactive).

Q: What about the GI50 (PC-3) of the same compound?
A: The GI50 was 38.2 µM (inactive).

Q: What about the GI50 (OVCAR-5) of the same compound?
A: Its GI50 is 99.3 µM (inactive).

Q: And the GI50 (UO-31)?
A: Its GI50 is 32.4 µM (inactive).

Q: And the GI50 (SF-539)?
A: Its GI50 is 74 µM (inactive).

Q: What about the GI50 (SK-MEL-2) of the same compound?
A: The GI50 was 51.9 µM (inactive).

Q: And the GI50 (Hs-578T)?
A: Its GI50 is 61.8 µM (inactive).

Q: And the GI50 (U-251)?
A: The GI50 was 45 µM (inactive).

Q: And the GI50 (BT-549)?
A: Its GI50 is 33.9 µM (inactive).

Q: And the GI50 (UACC-62)?
A: The GI50 was 35.2 µM (inactive).

Q: What about the GI50 (OVCAR-4) of the same compound?
A: Its GI50 is 36.9 µM (inactive).

Q: What about the GI50 (NCI-H226) of the same compound?
A: Its GI50 is 60.3 µM (inactive).

Q: And the GI50 (RPMI-8226)?
A: The GI50 was 30.3 µM (inactive).

Q: And the GI50 (T47D)?
A: Its GI50 is 28.7 µM (inactive).

Q: What about the GI50 (HOP-62) of the same compound?
A: The GI50 was 95.3 µM (inactive).

Q: And the GI50 (NCI/ADR-RES)?
A: The GI50 was > 100 µM (inactive).

Q: And the GI50 (ACHN)?
A: The GI50 was 52.5 µM (inactive).

Q: And the GI50 (SK-OV-3)?
A: Its GI50 is 34.2 µM (inactive).

Q: And the GI50 (LOX IMVI)?
A: Its GI50 is 20 µM (inactive).

Q: What about the GI50 (KM12) of the same compound?
A: Its GI50 is 43.3 µM (inactive).

Q: What about the GI50 (DU-145) of the same compound?
A: Its GI50 is 57.7 µM (inactive).

Q: What about the GI50 (TK-10) of the same compound?
A: The GI50 was 88.7 µM (inactive).

Q: And the GI50 (NCI-H460)?
A: The GI50 was 27 µM (inactive).

Q: And the GI50 (A549)?
A: Its GI50 is 60.4 µM (inactive).

Q: And the GI50 (MCF7)?
A: The GI50 was 40.7 µM (inactive).

Q: What about the GI50 (OVCAR-3) of the same compound?
A: The GI50 was 64.7 µM (inactive).

Q: What about the GI50 (HT-29) of the same compound?
A: Its GI50 is 45.2 µM (inactive).

Q: What about the GI50 (786-0) of the same compound?
A: The GI50 was 41.9 µM (inactive).

Q: And the GI50 (HCC 2998)?
A: Its GI50 is 54.8 µM (inactive).

Q: And the GI50 (SNB-19)?
A: The GI50 was 84.3 µM (inactive).

Q: And the GI50 (SF-295)?
A: The GI50 was 36 µM (inactive).

Q: And the GI50 (SF-268)?
A: Its GI50 is 99.8 µM (inactive).

Q: And the GI50 (EKVX)?
A: The GI50 was 66.5 µM (inactive).

Q: And the GI50 (NCI-H522)?
A: Its GI50 is 41.7 µM (inactive).

Q: What about the GI50 (HOP-92) of the same compound?
A: The GI50 was 37.3 µM (inactive).

Q: What about the GI50 (SW-620) of the same compound?
A: The GI50 was 37.4 µM (inactive).

Q: Which GI50 (HCT-116) does the source give for `CNC(=O)C(CC(C)C)NC(=O)C(C)NC(=O)C(Cc1ccc(OCc2ccccc2)cc1)NC(=O)C(COCc1ccccc1)NC(=O)OC(C)(C)C` (stereo unspecified) (Boc-S(Bn)Y(Bn)AL-NHMe; configuration not given here) here?
A: Its GI50 is 6.5 µM (inactive) and 7.45 µM (inactive).

Q: And the GI50 (NCI-H23)?
A: The GI50 was 20.1 µM (inactive) and 27.2 µM (inactive).

Q: What about the GI50 (MDA-MB-231) of the same compound?
A: The GI50 was 15.6 µM (inactive) and 16.6 µM (inactive).

Q: And the GI50 (CAKI-1)?
A: Its GI50 is 32.5 µM (inactive) and > 64 µM (inactive).

Q: What about the GI50 (UACC-257) of the same compound?
A: The GI50 was > 100 µM (inactive).

Q: What about the GI50 (IGROV-1) of the same compound?
A: Its GI50 is 22.3 µM (inactive) and 23.1 µM (inactive).

Q: And the GI50 (HCT-15)?
A: The GI50 was > 100 µM.

Q: What about the GI50 (K562) of the same compound?
A: Its GI50 is 9.95 µM (inactive) and 12.6 µM (inactive).

Q: And the GI50 (MOLT-4)?
A: The GI50 was 6.85 µM (inactive) and 6.15 µM (inactive).

Q: And the GI50 (OVCAR-8)?
A: Its GI50 is 16.9 µM (inactive) and 17.1 µM (inactive).

Q: And the GI50 (SR)?
A: Its GI50 is 15.1 µM (inactive) and 8.55 µM (inactive).

Q: What about the GI50 (UO-31) of the same compound?
A: The GI50 was > 100 µM (inactive).

Q: What about the GI50 (SF-539) of the same compound?
A: The GI50 was > 42.2 µM (inactive).

Q: And the GI50 (Hs-578T)?
A: Its GI50 is 25 µM (inactive) and 15.8 µM (inactive).

Q: And the GI50 (U-251)?
A: Its GI50 is 15.9 µM (inactive) and 8.57 µM (inactive).

Q: What about the GI50 (BT-549) of the same compound?
A: The GI50 was 18.5 µM (inactive) and 22 µM (inactive).

Q: And the GI50 (UACC-62)?
A: Its GI50 is 18.5 µM (inactive) and > 10 µM (inactive).

Q: What about the GI50 (OVCAR-4) of the same compound?
A: The GI50 was 17.9 µM (inactive) and 20.6 µM (inactive).

Q: What about the GI50 (HOP-62) of the same compound?
A: The GI50 was 20.5 µM (inactive) and 22.6 µM (inactive).

Q: What about the GI50 (NCI/ADR-RES) of the same compound?
A: The GI50 was > 100 µM (inactive).

Q: What about the GI50 (SK-OV-3) of the same compound?
A: The GI50 was 18.5 µM (inactive) and 27.7 µM (inactive).

Q: And the GI50 (LOX IMVI)?
A: Its GI50 is 16.5 µM (inactive) and 11.4 µM (inactive).

Q: What about the GI50 (KM12) of the same compound?
A: The GI50 was 17 µM (inactive) and 18.2 µM (inactive).

Q: What about the GI50 (DU-145) of the same compound?
A: The GI50 was 65.5 µM (inactive).

Q: And the GI50 (MCF7)?
A: The GI50 was 10.7 µM (inactive) and 16.1 µM (inactive).

Q: What about the GI50 (HT-29) of the same compound?
A: Its GI50 is 13.6 µM (inactive) and 13.4 µM (inactive).

Q: And the GI50 (786-0)?
A: The GI50 was 22.8 µM (inactive) and 20.7 µM (inactive).

Q: And the GI50 (MDA-N)?
A: The GI50 was 12.1 µM (inactive) and 14.8 µM (inactive).

Q: And the GI50 (SNB-19)?
A: Its GI50 is 30 µM (inactive) and 17.4 µM (inactive).

Q: And the GI50 (SF-268)?
A: The GI50 was 17.5 µM (inactive) and 22.9 µM (inactive).

Q: And the GI50 (NCI-H522)?
A: Its GI50 is > 10 µM (inactive) and 13.8 µM (inactive).

Q: What about the GI50 (HOP-92) of the same compound?
A: Its GI50 is 24.9 µM (inactive) and 30.5 µM (inactive).

Q: And the GI50 (SW-620)?
A: The GI50 was 11.5 µM (inactive) and 8.65 µM (inactive).
